# Assay results: publication PMC11073913 (Archiv der Pharmazie, 2024)
# Values joined by “and” are separate entries in the source; they are usually repeats but may differ in a detail not shown here. Identical values can stand only once. Like-named read-outs stand apart in the source and are kept apart here.
# Key:
# [1] = system: LPS-induced IL-6 production in RAW 264.7 cells; settings: for IL-6 level: cells treated with 25 μM compound, LPS-activated RAW 264.7
# human recombinant COX-2 = target: T1, human recombinant COX-2 (Homo sapiens, UniProt P35354); experiment: In vitro COX-2 inhibitory assay; format: biochemical; settings: for Enhancement of anti-COX-2 activity by p-Cl on benzylidine: compared with unsubstituted compounds 4b, 4c, 4g, 4h respectively
# T1 sequence (P35354 18-604): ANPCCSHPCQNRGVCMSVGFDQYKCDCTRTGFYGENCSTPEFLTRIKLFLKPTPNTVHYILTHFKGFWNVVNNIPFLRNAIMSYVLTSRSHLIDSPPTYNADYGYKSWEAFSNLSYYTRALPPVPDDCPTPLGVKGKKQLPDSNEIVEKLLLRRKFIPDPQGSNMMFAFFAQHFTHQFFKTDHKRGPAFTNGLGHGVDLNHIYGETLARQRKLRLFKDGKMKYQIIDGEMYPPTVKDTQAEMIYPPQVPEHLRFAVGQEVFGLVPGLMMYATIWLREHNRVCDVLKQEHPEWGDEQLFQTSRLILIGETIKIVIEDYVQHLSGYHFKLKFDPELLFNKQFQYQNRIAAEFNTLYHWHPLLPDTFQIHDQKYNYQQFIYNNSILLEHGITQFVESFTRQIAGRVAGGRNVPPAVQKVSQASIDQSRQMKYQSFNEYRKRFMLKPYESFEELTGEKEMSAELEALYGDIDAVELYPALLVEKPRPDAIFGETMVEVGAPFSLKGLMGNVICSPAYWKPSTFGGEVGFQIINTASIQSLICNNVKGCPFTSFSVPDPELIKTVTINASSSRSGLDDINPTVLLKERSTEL
# ovine COX-1 = target: T2, ovine COX-1 (Ovis aries, UniProt P05979); experiment: In vitro COX-1 inhibitory assay; format: biochemical
# T2 sequence (P05979 25-600): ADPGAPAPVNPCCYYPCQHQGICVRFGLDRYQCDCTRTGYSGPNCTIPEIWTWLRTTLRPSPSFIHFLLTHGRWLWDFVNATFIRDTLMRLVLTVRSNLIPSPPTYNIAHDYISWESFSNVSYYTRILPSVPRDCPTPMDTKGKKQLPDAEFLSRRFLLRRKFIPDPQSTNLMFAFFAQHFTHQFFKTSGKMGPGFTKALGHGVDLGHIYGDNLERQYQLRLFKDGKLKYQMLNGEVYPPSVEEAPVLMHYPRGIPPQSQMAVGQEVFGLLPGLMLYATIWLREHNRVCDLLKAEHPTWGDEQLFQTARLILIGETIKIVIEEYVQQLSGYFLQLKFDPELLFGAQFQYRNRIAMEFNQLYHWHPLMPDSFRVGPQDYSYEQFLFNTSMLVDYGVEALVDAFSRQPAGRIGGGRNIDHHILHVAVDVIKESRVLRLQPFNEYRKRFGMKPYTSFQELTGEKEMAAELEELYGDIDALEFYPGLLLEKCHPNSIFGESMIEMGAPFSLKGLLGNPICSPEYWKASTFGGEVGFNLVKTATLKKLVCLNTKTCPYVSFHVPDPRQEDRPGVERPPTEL
# [2] = system: LPS-induced ROS production in RAW 264.7 cells; experiment: cells; settings: Mus musculus, RAW264.7, 18 h, read-out: ROS (IC50)
# soybean 15-LOX = target: T3, soybean 15-LOX (Glycine max, UniProt P08170); experiment: In vitro 15-LOX inhibitory assay; format: biochemical
# T3 sequence (P08170 1-839): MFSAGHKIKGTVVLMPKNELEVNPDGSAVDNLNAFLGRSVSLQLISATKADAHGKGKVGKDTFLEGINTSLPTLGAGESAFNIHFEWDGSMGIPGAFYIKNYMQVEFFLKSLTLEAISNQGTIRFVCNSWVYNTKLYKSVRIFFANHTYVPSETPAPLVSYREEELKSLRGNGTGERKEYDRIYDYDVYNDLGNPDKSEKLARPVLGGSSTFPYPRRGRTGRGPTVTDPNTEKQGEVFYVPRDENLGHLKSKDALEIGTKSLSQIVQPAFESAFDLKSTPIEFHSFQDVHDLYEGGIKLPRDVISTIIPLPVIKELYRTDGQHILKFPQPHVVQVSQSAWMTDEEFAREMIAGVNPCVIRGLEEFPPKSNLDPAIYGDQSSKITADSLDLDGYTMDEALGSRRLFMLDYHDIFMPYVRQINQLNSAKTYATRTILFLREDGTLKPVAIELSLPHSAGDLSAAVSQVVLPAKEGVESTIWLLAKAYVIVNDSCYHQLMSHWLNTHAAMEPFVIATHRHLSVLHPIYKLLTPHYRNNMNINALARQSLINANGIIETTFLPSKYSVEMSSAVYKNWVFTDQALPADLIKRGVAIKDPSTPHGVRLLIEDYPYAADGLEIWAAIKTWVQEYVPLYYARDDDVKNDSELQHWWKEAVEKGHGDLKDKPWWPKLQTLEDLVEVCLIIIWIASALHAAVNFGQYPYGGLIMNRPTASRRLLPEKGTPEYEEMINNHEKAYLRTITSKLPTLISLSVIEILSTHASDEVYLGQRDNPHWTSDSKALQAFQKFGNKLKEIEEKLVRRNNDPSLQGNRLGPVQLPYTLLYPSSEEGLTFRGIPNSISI
# [3] = system: LPS-induced TNF-α production in RAW 264.7 cells; settings: for TNF-α level: cells treated with 25 μM compound, LPS-activated RAW 264.7
SMILES,IL-6 level [1],IC50 (human recombinant COX-2) [µM],SI (Selectivity index = COX-1 IC50/COX-2 IC50) (human recombinant COX-2),Enhancement of anti-COX-2 activity by p-Cl on benzylidine (human recombinant COX-2) [folds],IC50 (ovine COX-1) [µM],IC50 [2] [µM],IC50 (soybean 15-LOX) [µM],TNF-α level [3],"IL-6 inhibitory activity, folds more than unsubstituted benzylidine 4h ([1]; vs 4h)","TNF-α inhibitory activity, fold more than unsubstituted benzylidine 4h ([3]; vs 4h) [fold]","TNF-α inhibition, fold more potent than celecoxib ([3]; vs celecoxib)",IL-6 level ([1]; listed as celecoxib) [pg/mL],TNF-α level ([3]; listed as celecoxib) [pg/mL]
"COc1cc(NC(=O)CSC2=N/C(=C\c3ccc(Cl)cc3)C(=O)N2c2ccccc2)cc(OC)c1OC [Compound 4p, (Z)-2-{[4-(4-Chlorobenzylidene)-5-oxo-1-phenyl-4,5-dihydro-1H-imidazol-2-yl]thio}-N-(3,4,5-trimethoxyphenyl)acetamide]",30.70 pg/mL and 30.70 ± 3.70 pg/mL,0.08 ± 0.037,152.23 and 152.33,1.75,12.8 ± 1.83,25.4 ± 1.26,2.69 ± 1.29,31.42 ± 3.70 pg/mL,,,,,
"O=C(CSC1=N/C(=C\c2ccc(Cl)cc2)C(=O)N1c1ccccc1)Nc1cccc(C(F)(F)F)c1 [Compound 4q, (Z)-2-{[4-(4-Chlorobenzylidene)-5-oxo-1-phenyl-4,5-dihydro-1H-imidazol-2-yl]thio}-N-[3-(trifluoromethyl)phenyl]acetamide]",4.54 ± 0.61 pg/mL,0.09 ± 0.04,111.90,3.1,10.1 ± 1.61,56.2 ± 1.26,3.99 ± 1.9,5.26 pg/mL and 5.26 ± 0.61 pg/mL,~ 5 folds,4.6,~ 5 fold,,
"Cc1ccc(-c2cc(C(F)(F)F)nn2-c2ccc(S(N)(=O)=O)cc2)cc1 [Celecoxib, celecoxib, reference compound]",24.64 ± 6.36 pg/mL,,,,,44.6 ± 1.18,,25.36 ± 6.364 pg/mL,,,,24.64,25.36
"O=C(CSC1=N/C(=C\c2ccccc2)C(=O)N1c1ccccc1)Nc1cccc(C(F)(F)F)c1 [Compound 4h, (Z)-2-[(4-Benzylidene-5-oxo-1-phenyl-4,5-dihydro-1H-imidazol-2-yl)thio]-N-[3-(trifluoromethyl)phenyl]acetamide]",23.42 pg/mL and 23.42 ± 1.05 pg/mL,0.28 ± 0.155,39.99,,11.1 ± 1.63,45.4 ± 1.23,5.71 ± 2.56,24.15 ± 1.05 pg/mL,,,,,
"Cc1ccc(NC(=O)CSC2=N/C(=C\c3ccc(Cl)cc3)C(=O)N2c2ccccc2)cc1 [Compound 4n, (Z)-2-{[4-(4-Chlorobenzylidene)-5-oxo-1-phenyl-4,5-dihydro-1H-imidazol-2-yl]thio}-N-(4-tolyl)acetamide]",36.56 ± 14.95 pg/mL,0.12 ± 0.053,79.96,,9.45 ± 1.33,41 ± 1.39,3.13 ± 1.49,37.28 ± 14.95 pg/mL,,,,,
"O=C(CSC1=N/C(=C\c2ccc(Cl)cc2)C(=O)N1c1ccccc1)Nc1ccccc1 [Compound 4j, (Z)-2-{[4-(4-Chlorobenzylidene)-5-oxo-1-phenyl-4,5-dihydro-1H-imidazol-2-yl]thio}-N-phenylacetamide]",49.59 pg/mL and 49.59 ± 10.22 pg/mL,0.13 ± 0.064,94.97,,12 ± 1.67,33.4 ± 1.27,4.75 ± 2.31,50.31 ± 10.22 pg/mL,,,,,
"COc1ccc(NC(=O)CSC2=N/C(=C\c3ccc(Cl)cc3)C(=O)N2c2ccccc2)cc1 [Compound 4o, (Z)-2-{[4-(4-Chlorobenzylidene)-5-oxo-1-phenyl-4,5-dihydro-1H-imidazol-2-yl]thio}-N-(4-methoxyphenyl)acetamide]",28.37 pg/mL and 28.37 ± 4.54 pg/mL,0.1 ± 0.044,111.27,,11 ± 1.53,24.2 ± 1.26,3.24 ± 1.46,29.10 ± 4.54 pg/mL,,,,,
